{"source": "patent US20240299359A1", "about": "“PHARMACEUTICAL COMPOSITION FOR ANIMALS CONTAINING 5-HYDROXY-METHYLIMIDAZOLIDINE-2,4-DIONE COMPOUND AS ACTIVE INGREDIENT” (KYONGBO PHARM. CO., LTD., priority 2021, published 2024)", "key": {"beagles [1]": {"system": "beagles", "assay": "13-week repeated oral toxicity: urine test", "assay_type": "in vivo, beagle", "settings": "for Acidity / Specific gravity / Creatinine UPC / Occult blood / Protein / Bilirubin: urine", "description": "Urine tests were performed on the urine collected in the morning of blood donation day (Wednesday of the week) after fasting for about 16 hours, before administration, 4th week (day 29) after administration, the 8th week (day 57) after administration, and 13th week (day 92) after administration. Urine was collected from all the fasting subjects using a silicone tube connected to a duct after mounting a urine plate at the bottom of the cage for 16 hours. The collected urine was centrifuged at 1,500 rpm for 5 minutes to obtain the supernatant, then immersed in a urine strip (thinka Urine Test Strip, ARKRAY, Inc., Japan), the residue around the strip was removed, urine was analyzed using a urine analyzer (thinka RT-4010, ARKRAY, Inc., Japan), and the urine specific gravity of each subject was measured using a urine hydrometer (Master-URC.NM, ATAGO CO., LTD, Japan)."}, "beagles [2]": {"system": "beagles", "assay": "13-week repeated oral toxicity: observation of general symptoms", "assay_type": "in vivo", "settings": "repeated oral once a day for 13 weeks", "description": "Furthermore, the present inventors performed a toxicity test on 5-hydroxy-1-methylimidazolidine-2,4-dione in beagles. Toxicity tests were conducted based on single oral administration and repeated oral administration for 13 weeks. The stability of the compound was analyzed by evaluating the analysis items including clinical symptoms, weight, feed intake, blood test, urine and eye test during the administration period.\nGeneral symptoms (such as vomiting, salivation, diarrhea, and abnormal behavior) and death were observed daily during the 13-week test period, starting from the day before administration, and abnormalities were recorded in clinical symptoms."}, "[3]": {"settings": "before administration, 200 mg/kg group, female, group mean"}, "[4]": {"settings": "before administration, 200 mg/kg group, female, individual animal"}, "[5]": {"settings": "before administration, 200 mg/kg group, female, individual animal, 200 mg/kg"}, "[6]": {"settings": "before administration, 200 mg/kg group, male, group mean"}, "[7]": {"settings": "before administration, 200 mg/kg group, male, individual animal"}, "[8]": {"settings": "before administration, 200 mg/kg group, male, individual animal, 200 mg/kg"}, "[9]": {"settings": "before administration, 500 mg/kg group, female, group mean"}, "[10]": {"settings": "before administration, 500 mg/kg group, female, individual animal"}, "[11]": {"settings": "before administration, 500 mg/kg group, female, individual animal, 500 mg/kg"}, "[12]": {"settings": "before administration, 500 mg/kg group, male, group mean"}, "[13]": {"settings": "before administration, 500 mg/kg group, male, individual animal"}, "[14]": {"settings": "before administration, 500 mg/kg group, male, individual animal, 500 mg/kg"}, "[15]": {"settings": "before administration, 1,000 mg/kg group, female, group mean"}, "[16]": {"settings": "before administration, 1,000 mg/kg group, female, individual animal"}, "[17]": {"settings": "before administration, 1,000 mg/kg group, male, group mean"}, "[18]": {"settings": "before administration, 1,000 mg/kg group, male, individual animal"}, "[19]": {"settings": "200 mg/kg, females, repeated administration for 13 weeks, group Mean"}, "[20]": {"settings": "200 mg/kg, females, repeated administration for 13 weeks, individual animals"}, "[21]": {"settings": "200 mg/kg, males, repeated administration for 13 weeks, group Mean"}, "[22]": {"settings": "200 mg/kg, males, repeated administration for 13 weeks, individual animals"}, "[23]": {"settings": "500 mg/kg, females, repeated administration for 13 weeks, group Mean"}, "[24]": {"settings": "500 mg/kg, females, repeated administration for 13 weeks, individual animals"}, "[25]": {"settings": "500 mg/kg, males, repeated administration for 13 weeks, group Mean"}, "[26]": {"settings": "500 mg/kg, males, repeated administration for 13 weeks, individual animals"}, "[27]": {"settings": "1,000 mg/kg, females, repeated administration for 13 weeks, group Mean"}, "[28]": {"settings": "1,000 mg/kg, females, repeated administration for 13 weeks, individual animals"}, "[29]": {"settings": "1,000 mg/kg, males, repeated administration for 13 weeks, group Mean"}, "[30]": {"settings": "1,000 mg/kg, males, repeated administration for 13 weeks, individual animals"}}, "note": "Where “and” joins values, the source holds several entries; their conditions need not be identical. Equal entries are not always repeated."}
{"compound": "CN1C(=O)NC(=O)C1O", "note": "(stereo not drawn) [KBP-001, 5-hydroxy-1-methylimidazolidine-2,4-dione]", "values": [{"measurement": "urine test items including urine specific gravity", "setting": "beagles [1]; before and after administration, 13 weeks", "result": "fell within the normal physiological ranges"}, {"measurement": "Acidity", "setting": "beagles [1]; [3]", "result": 7.833, "unit": "PH"}, {"measurement": "Specific gravity", "setting": "beagles [1]; [3]", "result": 1.03}, {"measurement": "Creatinine UPC", "setting": "beagles [1]; [4]", "result": "<0.20 mg(ratio)"}, {"measurement": "Occult blood", "setting": "beagles [1]; [4]", "result": "0.03(+−) RBC/dl"}, {"measurement": "Acidity", "setting": "beagles [1]; [5]", "result": "8.0 PH and 7.0 PH and 8.5 PH"}, {"measurement": "Specific gravity", "setting": "beagles [1]; [5]", "result": "1.02 (2×) and 1.04"}, {"measurement": "Acidity", "setting": "beagles [1]; [6]", "result": 8.000, "unit": "PH"}, {"measurement": "Specific gravity", "setting": "beagles [1]; [6]", "result": 1.03}, {"measurement": "Creatinine UPC", "setting": "beagles [1]; [7]", "result": "<0.20 mg(ratio)"}, {"measurement": "Protein", "setting": "beagles [1]; [7]", "result": "15(+−)"}, {"measurement": "Acidity", "setting": "beagles [1]; [8]", "result": "8.0 PH and 7.0 PH and 9.0 PH"}, {"measurement": "Specific gravity", "setting": "beagles [1]; [8]", "result": 1.03}, {"measurement": "Acidity", "setting": "beagles [1]; [9]", "result": 6.833, "unit": "PH"}, {"measurement": "Specific gravity", "setting": "beagles [1]; [9]", "result": 1.02}, {"measurement": "Creatinine UPC", "setting": "beagles [1]; [10]", "result": "<0.20 mg(ratio)"}, {"measurement": "Occult blood", "setting": "beagles [1]; [10]", "result": "0.03(+−) RBC/dl"}, {"measurement": "Acidity", "setting": "beagles [1]; [11]", "result": "6.5 PH and 7.0 PH (2×)"}, {"measurement": "Specific gravity", "setting": "beagles [1]; [11]", "result": 1.02}, {"measurement": "Acidity", "setting": "beagles [1]; [12]", "result": 8.167, "unit": "PH"}, {"measurement": "Specific gravity", "setting": "beagles [1]; [12]", "result": 1.03}, {"measurement": "Bilirubin", "setting": "beagles [1]; [13]", "result": "0.5(1+)"}, {"measurement": "Creatinine UPC", "setting": "beagles [1]; [13]", "result": "<0.20 mg(ratio)"}, {"measurement": "Acidity", "setting": "beagles [1]; [14]", "result": "8.5 PH (2×) and 7.5 PH"}, {"measurement": "Specific gravity", "setting": "beagles [1]; [14]", "result": "1.03 (2×) and 1.04"}, {"measurement": "Acidity", "setting": "beagles [1]; [15]", "result": 7.667, "unit": "PH"}, {"measurement": "Specific gravity", "setting": "beagles [1]; [15]", "result": 1.03}, {"measurement": "Acidity", "setting": "beagles [1]; [16]", "result": "8.0 PH and 7.5 PH (2×)"}, {"measurement": "Creatinine UPC", "setting": "beagles [1]; [16]", "result": "<0.20 mg(ratio)"}, {"measurement": "Specific gravity", "setting": "beagles [1]; [16]", "result": "1.04 and 1.02 (2×)"}, {"measurement": "Acidity", "setting": "beagles [1]; [17]", "result": 8.000, "unit": "PH"}, {"measurement": "Specific gravity", "setting": "beagles [1]; [17]", "result": 1.03}, {"measurement": "Acidity", "setting": "beagles [1]; [18]", "result": "8.0 PH and 9.0 PH and 7.0 PH"}, {"measurement": "Bilirubin", "setting": "beagles [1]; [18]", "result": "0.5(1+)"}, {"measurement": "Creatinine UPC", "setting": "beagles [1]; [18]", "result": "<0.20 mg(ratio)"}, {"measurement": "Occult blood", "setting": "beagles [1]; [18]", "result": "0.06(1+) RBC/dl"}, {"measurement": "Specific gravity", "setting": "beagles [1]; [18]", "result": "1.03 and 1.02 and 1.04"}, {"measurement": "Acidity", "setting": "beagles [1]; [19]", "result": 7.333, "unit": "PH"}, {"measurement": "Specific gravity", "setting": "beagles [1]; [19]", "result": 1.03}, {"measurement": "Acidity", "setting": "beagles [1]; [20]", "result": "7.0 PH (2×) and 8.0 PH"}, {"measurement": "Creatinine UPC", "setting": "beagles [1]; [20]", "result": "<0.20 mg(ratio)"}, {"measurement": "Acidity", "setting": "beagles [1]; [21]", "result": 8.567, "unit": "PH"}, {"measurement": "Specific gravity", "setting": "beagles [1]; [21]", "result": 1.04}, {"measurement": "Acidity", "setting": "beagles [1]; [22]", "result": "8.0 PH and 9.0 PH (2×)"}, {"measurement": "Bilirubin", "setting": "beagles [1]; [22]", "result": "0.5(1+)"}, {"measurement": "Creatinine UPC", "setting": "beagles [1]; [22]", "result": "<0.20 mg(ratio)"}, {"measurement": "Protein", "setting": "beagles [1]; [22]", "result": "15(+−)"}, {"measurement": "Specific gravity", "setting": "beagles [1]; [22]", "result": "1.04 and 1.05 and 1.02"}, {"measurement": "Acidity", "setting": "beagles [1]; [23]", "result": 8.500, "unit": "PH"}, {"measurement": "Specific gravity", "setting": "beagles [1]; [23]", "result": 1.03}, {"measurement": "Acidity", "setting": "beagles [1]; [24]", "result": "9.0 PH and 8.5 PH and 8.0 PH"}, {"measurement": "Creatinine UPC", "setting": "beagles [1]; [24]", "result": "<0.20 mg(ratio)"}, {"measurement": "Specific gravity", "setting": "beagles [1]; [24]", "result": "1.04 (2×) and 1.02"}, {"measurement": "Acidity", "setting": "beagles [1]; [25]", "result": 8.500, "unit": "PH"}, {"measurement": "Specific gravity", "setting": "beagles [1]; [25]", "result": 1.04}, {"measurement": "Acidity", "setting": "beagles [1]; [26]", "result": "9.0 PH (2×) and 7.5 PH"}, {"measurement": "Creatinine UPC", "setting": "beagles [1]; [26]", "result": "<0.20 mg(ratio)"}, {"measurement": "Protein", "setting": "beagles [1]; [26]", "result": "15(+−)"}, {"measurement": "Specific gravity", "setting": "beagles [1]; [26]", "result": "1.05 and 1.02 and 1.04"}, {"measurement": "Acidity", "setting": "beagles [1]; [27]", "result": 7.667, "unit": "PH"}, {"measurement": "Specific gravity", "setting": "beagles [1]; [27]", "result": 1.03}, {"measurement": "Acidity", "setting": "beagles [1]; [28]", "result": "8.0 PH and 7.5 PH (2×)"}, {"measurement": "Creatinine UPC", "setting": "beagles [1]; [28]", "result": "<0.20 mg(ratio)"}, {"measurement": "Specific gravity", "setting": "beagles [1]; [28]", "result": "1.05 and 1.03 and 1.02"}, {"measurement": "Acidity", "setting": "beagles [1]; [29]", "result": 7.833, "unit": "PH"}, {"measurement": "Specific gravity", "setting": "beagles [1]; [29]", "result": 1.03}, {"measurement": "Acidity", "setting": "beagles [1]; [30]", "result": "9.0 PH and 7.0 PH and 7.5 PH"}, {"measurement": "Creatinine UPC", "setting": "beagles [1]; [30]", "result": "<0.20 mg(ratio)"}, {"measurement": "Occult blood", "setting": "beagles [1]; [30]", "result": "0.06(1+) RBC/dl and 0.03(+−) RBC/dl"}, {"measurement": "Protein", "setting": "beagles [1]; [30]", "result": "15(+−)"}, {"measurement": "Specific gravity", "setting": "beagles [1]; [30]", "result": "1.04 and 1.02 and 1.03"}, {"measurement": "general symptoms and deaths", "setting": "beagles [2]", "result": "no unusual symptoms (vomiting, salivation, diarrhea, behavioral abnormalities, etc.) or deaths occurred"}]}
